Laboratory results: paper PMC7181660, “A novel specific PERK activator reduces toxicity and extends survival in Huntington's disease models” (Scientific Reports, 2020)
Several values for one entry are separate records, joined by “and”; a condition that tells them apart may be missing. Equal values may be shown once.

Legend:
Assay in all cases: biochemical
Type in all cases: biochemical
panel of 391 kinases [1] = target: panel of 391 kinases (Homo sapiens, UniProt O15146); conditions: MUSK, MK-28 1 µM, ATP 1 µM
panel of 391 kinases [2] = target: panel of 391 kinases (Homo sapiens, UniProt O60674); conditions: JAK2, MK-28 1 µM, ATP 1 µM
panel of 391 kinases [3] = target: panel of 391 kinases (Homo sapiens, UniProt P07332); conditions: FES/FPS, MK-28 1 µM, ATP 1 µM
panel of 391 kinases [4] = target: panel of 391 kinases (Homo sapiens, UniProt P09619); conditions: PDGFRb, MK-28 1 µM, ATP 1 µM
panel of 391 kinases [5] = target: panel of 391 kinases (Homo sapiens, UniProt P15056); conditions: BRAF, MK-28 1 µM, ATP 1 µM
panel of 391 kinases [6] = target: panel of 391 kinases (Homo sapiens, UniProt P23458); conditions: JAK1, MK-28 1 µM, ATP 1 µM
panel of 391 kinases [7] = target: panel of 391 kinases (Homo sapiens, UniProt P35968); conditions: KDR/VEGFR2, MK-28 1 µM, ATP 1 µM
panel of 391 kinases [8] = target: panel of 391 kinases (Homo sapiens, UniProt P36896); conditions: ALK4/ACVR1B, MK-28 1 µM, ATP 1 µM
panel of 391 kinases [9] = target: panel of 391 kinases (Homo sapiens, UniProt P42679); conditions: CTK/MATK, MK-28 1 µM, ATP 1 µM
panel of 391 kinases [10] = target: panel of 391 kinases (Homo sapiens, UniProt P42680); conditions: TEC, MK-28 1 µM, ATP 1 µM
panel of 391 kinases [11] = target: panel of 391 kinases (Homo sapiens, UniProt P51813); conditions: BMX/ETK, MK-28 1 µM, ATP 1 µM
panel of 391 kinases [12] = target: panel of 391 kinases (Homo sapiens, UniProt P53778); conditions: P38g, MK-28 1 µM, ATP 1 µM
panel of 391 kinases [13] = target: panel of 391 kinases (Homo sapiens, UniProt Q02763); conditions: TIE2/TEK, MK-28 1 µM, ATP 1 µM
panel of 391 kinases [14] = target: panel of 391 kinases (Homo sapiens, UniProt Q08881); conditions: ITK, MK-28 1 µM, ATP 1 µM
panel of 391 kinases [15] = target: panel of 391 kinases (Homo sapiens, UniProt Q15349); conditions: RSK3, MK-28 1 µM, ATP 1 µM
panel of 391 kinases [16] = target: panel of 391 kinases (Homo sapiens, UniProt Q16832); conditions: DDR2, MK-28 1 µM, ATP 1 µM
panel of 391 kinases [17] = target: panel of 391 kinases (Homo sapiens, UniProt Q8IW41); conditions: MAPKAPK5/PRAK, MK-28 1 µM, ATP 1 µM
panel of 391 kinases [18] = target: panel of 391 kinases (Homo sapiens, UniProt Q96KB5); conditions: PBK/TOPK, MK-28 1 µM, ATP 1 µM
panel of 391 kinases [19] = target: panel of 391 kinases (Homo sapiens, UniProt Q96NX5); conditions: CAMK1g, MK-28 1 µM, ATP 1 µM
panel of 391 kinases [20] = target: panel of 391 kinases (Homo sapiens, UniProt Q96SB4); conditions: SRPK1, MK-28 1 µM, ATP 1 µM
panel of 391 kinases [21] = target: panel of 391 kinases (Homo sapiens, UniProt Q99986); conditions: VRK1, MK-28 1 µM, ATP 1 µM
panel of 391 kinases [22] = target: panel of 391 kinases (Homo sapiens, UniProt Q9H2X6); conditions: HIPK2, MK-28 1 µM, ATP 1 µM
panel of 391 kinases [23] = target: panel of 391 kinases (Homo sapiens, UniProt Q9H4B4); conditions: PLK3, MK-28 1 µM, ATP 1 µM
panel of 391 kinases [24] = target: panel of 391 kinases (Homo sapiens, UniProt Q9HC98); conditions: NEK6, MK-28 1 µM, ATP 1 µM
panel of 391 kinases [25] = target: panel of 391 kinases (Homo sapiens, UniProt Q9NWZ3); conditions: IRAK4, MK-28 1 µM, ATP 1 µM
panel of 391 kinases [26] = target: panel of 391 kinases (Homo sapiens, UniProt Q9NYL2); conditions: ZAK/MLTK, MK-28 1 µM, ATP 1 µM
panel of 391 kinases [27] = conditions: for % Enzyme Activity (relative to DMSO controls): MK-28 1 µM, ATP 1 µM
[28] = read-out: % Enzyme Activity (relative to DMSO controls)

CN(/N=C\c1ccc(O)c(O)c1)c1nc(-c2ccccc2)cc(-c2ccccc2)n1 [MK-28]
% Enzyme Activity (relative to DMSO controls) (panel of 391 kinases [1]): 95.79% | remaining activity at 1 µM (panel of 391 kinases [1]; [28]): 99.1% | % Enzyme Activity (relative to DMSO controls) (panel of 391 kinases [2]): 91.77% | remaining activity at 1 µM (panel of 391 kinases [2]; [28]): 93.8% | % Enzyme Activity (relative to DMSO controls) (panel of 391 kinases [3]): 91.44% | remaining activity at 1 µM (panel of 391 kinases [3]; [28]): 95.1% | % Enzyme Activity (relative to DMSO controls) (panel of 391 kinases [4]): 99.16% | remaining activity at 1 µM (panel of 391 kinases [4]; [28]): 99.5% | % Enzyme Activity (relative to DMSO controls) (panel of 391 kinases [5]): 99.64% | remaining activity at 1 µM (panel of 391 kinases [5]; [28]): 101% | % Enzyme Activity (relative to DMSO controls) (panel of 391 kinases [6]): 100.53% | remaining activity at 1 µM (panel of 391 kinases [6]; [28]): 101% | % Enzyme Activity (relative to DMSO controls) (panel of 391 kinases [7]): 98.38% | remaining activity at 1 µM (panel of 391 kinases [7]; [28]): 99.8% | % Enzyme Activity (relative to DMSO controls) (panel of 391 kinases [8]): 89.88% | remaining activity at 1 µM (panel of 391 kinases [8]; [28]): 92.3% | % Enzyme Activity (relative to DMSO controls) (panel of 391 kinases [9]): 98.98% | remaining activity at 1 µM (panel of 391 kinases [9]; [28]): 101% | % Enzyme Activity (relative to DMSO controls) (panel of 391 kinases [10]): 100.49% | remaining activity at 1 µM (panel of 391 kinases [10]; [28]): 101% | % Enzyme Activity (relative to DMSO controls) (panel of 391 kinases [11]): 100.53% | remaining activity at 1 µM (panel of 391 kinases [11]; [28]): 102% | % Enzyme Activity (relative to DMSO controls) (panel of 391 kinases [12]): 100.96% | remaining activity at 1 µM (panel of 391 kinases [12]; [28]): 107% | % Enzyme Activity (relative to DMSO controls) (panel of 391 kinases [13]): 98.55% | remaining activity at 1 µM (panel of 391 kinases [13]; [28]): 99% | % Enzyme Activity (relative to DMSO controls) (panel of 391 kinases [14]): 92.03% | remaining activity at 1 µM (panel of 391 kinases [14]; [28]): 92.4% | % Enzyme Activity (relative to DMSO controls) (panel of 391 kinases [15]): 100.80% | remaining activity at 1 µM (panel of 391 kinases [15]; [28]): 103% | % Enzyme Activity (relative to DMSO controls) (panel of 391 kinases [16]): 95.21% | remaining activity at 1 µM (panel of 391 kinases [16]; [28]): 97.4% | % Enzyme Activity (relative to DMSO controls) (panel of 391 kinases [17]): 77.52% | remaining activity at 1 µM (panel of 391 kinases [17]; [28]): 77.8% | % Enzyme Activity (relative to DMSO controls) (panel of 391 kinases [18]): 93.64% | remaining activity at 1 µM (panel of 391 kinases [18]; [28]): 94.2% | % Enzyme Activity (relative to DMSO controls) (panel of 391 kinases [19]): 96.34% | remaining activity at 1 µM (panel of 391 kinases [19]; [28]): 100% | % Enzyme Activity (relative to DMSO controls) (panel of 391 kinases [20]): 103.25% | remaining activity at 1 µM (panel of 391 kinases [20]; [28]): 104% | % Enzyme Activity (relative to DMSO controls) (panel of 391 kinases [21]): 104.86% | remaining activity at 1 µM (panel of 391 kinases [21]; [28]): 106% | % Enzyme Activity (relative to DMSO controls) (panel of 391 kinases [22]): 122.10% | remaining activity at 1 µM (panel of 391 kinases [22]; [28]): 124% | % Enzyme Activity (relative to DMSO controls) (panel of 391 kinases [23]): 87.19% | remaining activity at 1 µM (panel of 391 kinases [23]; [28]): 91.2% | % Enzyme Activity (relative to DMSO controls) (panel of 391 kinases [24]): 99.56% | remaining activity at 1 µM (panel of 391 kinases [24]; [28]): 100% | % Enzyme Activity (relative to DMSO controls) (panel of 391 kinases [25]): 124.00% | remaining activity at 1 µM (panel of 391 kinases [25]; [28]): 129% | % Enzyme Activity (relative to DMSO controls) (panel of 391 kinases [26]): 104.97% | remaining activity at 1 µM (panel of 391 kinases [26]; [28]): 105% | number of other hits showing more than 30% increase over control (panel of 391 kinases [27]; 1 μM, 391-kinase panel): 3 | % Enzyme Activity (relative to DMSO controls) (panel of 391 kinases [27]; LYN B): 100.85% and 99.31% | % Enzyme Activity (relative to DMSO controls) (panel of 391 kinases [27]; PKCb2): 90.95% and 90.23% | % Enzyme Activity (relative to DMSO controls) (panel of 391 kinases [27]; PKG1b): 113.02% and 112.43%
